Data taken from patent US10953017B2, “Treatment of neurodegenerative diseases, causation of memory enhancement, and assay for screening compounds for such” (Southern Research Institute, priority 2009, dated 2021).

Experiments:
[1] = system: NF-kB; experiment: NF-kB promoter-driven firefly luciferase reporter assay in SH-5YSY clone C1; format: cell-based, human; conditions: for IC50: Homo sapiens, SH-5YSY clone C1, NF-kB luciferase reporter
From the text: SH-5YSY human neuroblastoma cell line was obtained from the American Tissue Culture collection (ATCC). The cells were expanded and frozen for long term storage. A commercially available expression vector containing the NF-kB promoter enhancer region driving the firefly lucipherase gene expression (see FIG. 1) was obtained. This plasmid was designed for transient expression studies and was devoid of any antibiotic-resistance conferring gene. A second plasmid containing the gene conferring resistance to blasticidin was also used. A dual transfection approach to obtain stable cell lines was employed. Prior to transfection, blasticidin sensitivity of the cell line was performed (See FIG. 2). It was determined that SH-5YSY cells were sensitive to the antibiotic toxicity and that 3 μg/ml caused total cell death (FIG. 2). After expanding and purifying adequate quantities of these plasmids, SH-5YSY cells were co-transfected with the above two plasmids and the clonal selection of the transfected cells in the presence of blasticidin proceeded. Several clones were identified that were both resistant to blasticidin and expressed the firefly luciferase upon exposure to TNF-α, □ a known inducer of NF-kB (See FIG. 3). After several assessments, a clone, C1, which expressed high levels of stimulated-luciferase expression and maintained it over time (see FIG. 3) was identified. To date, this clone has been in culture for over 37 passages without significant decline of the gene of interest induction. The optimal conditions for this assay to be carried out in a high throughput setting has been determined. Initially, the optimal number of cells needed was assessed. In FIG. 4 it is shown the effect of using a range of cells from 10,000 to 40,000. […] The assays has have been implemented using a similar cell density for HTS analysis without excessive problems. This cell line allows growing large scale quantities of cells fairly easily.
Successively, the optimal time of incubation and media requirements were assessed. […] These conditions are relatively affordable in HTS settings. Finally, since during robotic handling the plates containing the cells spend a significant amount of time outside the incubator and since phenol red could interfere with the reagents in the luciferase activity assay kit, the effect of using a phenol red free HEPES-buffered media was assessed. As shown in FIG. 5 there is a very little effect of phenol red free, HEPES-buffered media on the assay response and dynamic range. Therefore, the assessment is that it is possible to run this assay using these more forgiving media. Since the compounds contained in the most commonly used libraries are dissolved in DMSO, the effect of DMSO on both luciferase expression in response to TNF-α and C1 clone survival during assay simulations was characterized. The effect of increasing concentration of DMSO ranging from 0.05% through 0.5% on TNF-α induction of luciferase (black line and black scale) is shown in FIG. 6. Also the effect of DMSO on baseline expression of luciferase in the C1 clone is shown in FIG. 6 (gray line and gray scale). In FIG. 7, it is shown the effect of DMSO on cell survival in the same conditions described in FIG. 6. In these experimental settings cells, settled for 24 hours, and then were incubated for an additional 24 hours with DMSO at the indicated concentrations. At the end of the incubation phase cell viability was assessed using the commercially available kit Cell Titer Glo™ following the manufacturer instructions ([…]). […] Finally, the effect of different concentrations of TNF-α was studied in the clone C1.
Essential to development of an assay for high throughput screening is the assessment of Z′ values. This statistical parameter assesses the possibility that data obtained in a single well are statistically significant. In general, assays can generate negative and positive Z′ values. Negative Z′ values indicate a very unpredictable assay. […]

[2] = system: SH-5YSY cells; experiment: Blasticidin sensitivity of SH-5YSY cells; format: cell-based, human
From the text: SH-5YSY human neuroblastoma cell line was obtained from the American Tissue Culture collection (ATCC). The cells were expanded and frozen for long term storage. A commercially available expression vector containing the NF-kB promoter enhancer region driving the firefly lucipherase gene expression (see FIG. 1) was obtained. This plasmid was designed for transient expression studies and was devoid of any antibiotic-resistance conferring gene. A second plasmid containing the gene conferring resistance to blasticidin was also used. A dual transfection approach to obtain stable cell lines was employed. Prior to transfection, blasticidin sensitivity of the cell line was performed (See FIG. 2). It was determined that SH-5YSY cells were sensitive to the antibiotic toxicity and that 3 μg/ml caused total cell death (FIG. 2). After expanding and purifying adequate quantities of these plasmids, SH-5YSY cells were co-transfected with the above two plasmids and the clonal selection of the transfected cells in the presence of blasticidin proceeded. […] The optimal conditions for this assay to be carried out in a high throughput setting has been determined. Initially, the optimal number of cells needed was assessed. […] This cell line allows growing large scale quantities of cells fairly easily.

[3] = system: I-kB and NF-kB p65; experiment: Effect on I-kB and NF-kB p65 in cytoplasm and nucleus (FIG. 14); format: cell-based; conditions: FIG. 14 A
From the text: A) I-kB was not affected by CMPD exposure while it was reduced by TNF. B) CMPDs increased cytoplasmic NF-kB p65. C) CMPDs increased nuclear localization of NF-kB p65. D) The sum of CMPD effects on P65 in the cytoplasm and in the nucleus.

Compound	IC50 [1]	other results
Cc1ccc2nc(-c3ccc(NS(=O)(=O)c4ccccc4OC(F)(F)F)cc3)sc2c1 [AB00003451]	0.156 µM	
Cc1ccc2nc(-c3ccc(NS(=O)(=O)c4ccc(F)c(Cl)c4)cc3)sc2c1 [AB00011625]	0.111 µM	
COc1cc(C)c(S(=O)(=O)Nc2ccc(-c3nc4ccc(C)cc4s3)cc2)c(C)c1C [AB00012207]	0.155 µM	
COc1ccccc1C1CCN(C(=O)NCCc2ccccc2)CC1 [AB00013805]	0.067 µM	
C=C(C)CN(CC)C(=O)Nc1ccc(-c2ccccc2)cc1 [AB00022459]	0.065 µM	
COc1cccc(-c2nnc(-c3ccccc3NS(=O)(=O)c3ccc(NC(C)=O)cc3)o2)c1 [AB00027137]	0.13 µM	
COc1ccc(-c2coc3cc(OC)cc(O)c3c2=O)cc1 [AB00052939]	1.73 µM	
Nc1nc(-c2ccc(-c3ccccc3)cc2)cs1 [AB00074195]	0.122 µM	
COC(=O)c1sc2nc(-c3ccccc3)ccc2c1N [AB00079098]	0.067 µM	
Cc1ccc(-c2csc(Nc3ccccc3)n2)cc1 [AB00079697]	0.142 µM	
O=C1/C(=C\c2ccco2)Sc2ccccc21 [AB00083422]	3650 µM	
O=C1/C(=C\c2ccc(O)cc2)Sc2ccccc21 [AB00083765]	3.72 µM	
Clc1ccc(-c2nnc(-c3ccccc3Cl)o2)cc1 [AB00084000]	0.062 µM	
O=C(/C=C/Nc1cc(Cl)ccc1O)c1ccccc1 [AB00087011]	0.213 µM	
Cc1ccc(/C=C2/SC(=S)N(CCC(=O)Nc3ccc(O)cc3)C2=O)cc1 [AB00089877]	1310 µM	
S=C(c1ccc(-c2ccc(Cl)c(Cl)c2)o1)N1CCOCC1 [AB00091724]	5.19 µM	
S=C(c1ccc(-c2ccc(Cl)cc2)o1)N1CCOCC1 [AB00092070]	0.775 µM	

Compound	IC50 [1]	other results
S=C(c1ccc(-c2cccc(Cl)c2)o1)N1CCOCC1 [AB00092117]	3.4 µM	
Oc1ccccc1C1NN=C(c2ccccc2)S1 (stereo not drawn) [AB00092734]	0.382 µM	
Clc1ccc(C2NN=C(c3ccccc3)S2)cc1 (stereo not drawn) [AB00093093]	4.06 µM	
Oc1ccc2ccccc2c1C1NN=C(c2ccccc2)S1 (stereo not drawn) [AB00093094]	0.788 µM	
COc1ccc(-c2noc(-c3cccc(OC)c3)n2)cc1 [AB00093467]	0.082 µM	
COc1ccccc1-c1nc(-c2ccccc2Cl)no1 [AB00093511]	0.079 µM	
COc1ccccc1-c1nc(-c2ccc(C)cc2)no1 [AB00093558]	0.1 µM	
Fc1ccc(-c2cn3ccsc3n2)cc1 [AB00093742]	0.382 µM	
Brc1cccc(-c2cn3ccsc3n2)c1 [AB00093745]	0.251 µM	
CC(C)(C)c1ccc(-c2csc(N)n2)cc1 [AB00095939]	0.133 µM	
O=c1[nH]c(/C=C/c2ccc(O)cc2)nc2ccccc12 [AB00097657]	0.064 µM	
Cc1ccc(-c2csc(Nc3ccc(C(=O)O)cc3)n2)cc1C [AB00097765]	0.062 µM	
CCC(=O)NC(c1ccccc1Cl)c1ccc2cccnc2c1O (stereo not drawn) [AB00100961]	3.97 µM	
CCC(=O)NC(c1ccc(C)cc1)c1ccc2cccnc2c1O (stereo not drawn) [AB00101018]	3.17 µM	
CN(CC[C@H](N)CC(=O)N[C@H]1C=C[C@H](n2ccc(N)nc2=O)O[C@@H]1C(=O)O)C(=N)N [blasticidin]		concentration causing total cell death [2]: 3 µg/mL
TNF-α [reference compound]		I-kB [3]: reduced; luciferase expression in C1 cells ([1]; 0.625 up to 40 ng/ml): linear increase

Further lines, with some results ahead:

IC50 [1]	Compound	other results
3.7 µM	CCC(=O)NC(c1cccc([N+](=O)[O-])c1)c1ccc2cccnc2c1O (stereo not drawn) [AB00101133]	
0.144 µM	COc1ccc(-c2csc(Nc3ccc(N(C)C)cc3)n2)cc1 [AB00101290]	
0.337 µM	O=C(O)c1ccc(-c2nnc(-c3ccccc3Cl)o2)cc1 [AB00101507]	
0.579 µM	Cc1ccccc1-c1cc(-c2ccccc2O)n[nH]1 [AB00101695]	
0.213 µM	O=C(/C=C\Nc1cc(Cl)ccc1O)c1ccc2c(c1)OCO2 [AB00101723]	
0.235 µM	COc1ccc(C(=O)/C=C(\C)Nc2ccccc2O)cc1 [AB00102118]	
0.18 µM	O=C(Nc1ccc(F)cc1)N1CCc2ccccc21 [AB00105762]	
146 µM	O=C(CCN1C(=O)/C(=C\C=C\c2ccccc2)SC1=S)Nc1cc(Cl)ccc1O [AB00120582]	
0.545 µM	O=C(CCN1C(=O)/C(=C\C=C\c2ccccc2)SC1=S)Nc1ccc(C(=O)O)cc1 [AB00121550]	
0.159 µM	CN(Cc1cnc2nc(N)nc(N)c2c1)c1ccc(C(=O)N[C@@H](CCC(=O)O)C(=O)O)cc1 [AB00171904]	
0.345 µM	CCOC(=O)CC[C@H](NC(=O)c1ccc(NCc2cnc3nc(N)nc(N)c3c2C)cc1)C(=O)OCC [AB00174102]	
0.65 µM	COc1ccc(-c2cn3c4c(sc3n2)CCCC4)cc1 [AB00315863]	
0.328 µM	Cc1nnc(SCC(=O)Nc2ccc(-c3nc4ccccc4s3)cc2)s1 [AB00317535]	
0.697 µM	COc1ccc(NC(=O)N2CCc3ccccc32)cc1 [AB00329861]	
0.125 µM	Fc1ccc(-c2nc3n(n2)Cc2ccccc2-3)cc1 [AB00371839]	
22.7 µM	O=c1c(-c2ccc3c(c2)OCCO3)coc2cc(O)cc(O)c12 [AB00390364]	

IC50 [1]	Compound	other results
12.6 µM	c1ccc(CSCc2cn3ccsc3n2)cc1 [AB00421150]	
2.41 µM	Clc1c(CSc2nc3ccccc3o2)nc2sccn12 [AB00428616]	
4.52 µM	CC(C)Oc1cc(O)c2c(=O)c(-c3ccc(O)cc3)coc2c1 [AB00431689]	
0.639 µM	Oc1ccccc1-c1cc(-c2ccc3c(c2)OCCO3)[nH]n1 [AB00440877]	
0.123 µM	COc1cc(NCc2cnc3nc(N)nc(N)c3c2C)cc(C(F)(F)F)c1 [AB00443206]	
0.968 µM	COc1ccc(-c2cc(-c3ccccc3O)[nH]n2)cc1 [AB00461411]	
0.094 µM	Brc1ccc(-c2cn3ccccc3n2)s1 [AB00528862]	
5.98 µM	Cc1ccc(/C=C2\Sc3ccccc3C2=O)s1 [AB00534272]	
0.393 µM	Cc1ccc2nc(-c3ccc(NC(=O)COC(=O)c4cncc(Br)c4)cc3)sc2c1 [AB00542926]	
1.4 µM	COCCNc1nc(-c2cc3ccccc3o2)cs1 [AB00546194]	
0.598 µM	C=CCNc1nc(-c2cc3ccccc3o2)cs1 [AB00546606]	
0.155 µM	Cc1ccc2nc(-c3ccc(NC(=O)CCN4C(=O)c5ccccc5C4=O)cc3)sc2c1 [AB00547004]	
0.966 µM	c1ccc2oc(-c3csc(N4CCOCC4)n3)cc2c1 [AB00613917]	
0.104 µM	CC(=O)CSc1nc2cc3c(cc2cc1C#N)OCCO3 [AB00614173]	
0.361 µM	Cc1ccc(NC(=O)N2CCc3ccccc32)cc1C [AB00616066]	
0.114 µM	O=C(Nc1ccc2c(c1)OCCO2)Nc1ccc2c(c1)OCO2 [AB00616088]	
